Values quoted from earlier work, collected in patent US5177084A, “Therapeutic use of substituted benzenes, formulations thereof and novel substituted benzenes” (Merck Sharp & Dohme Ltd., priority 1989, dated 1993).

Conditions: literature report, test not specified

COc1ccc(C2(O)CN3CCC2CC3)cc1.O=C(O)C(=O)O (centres unmarked) [Example 2, 3-Hydroxy-3-(4-Methoxyphenyl)quinuclidine Hydrogen Oxalate]
pharmacological activity: did not display pharmacological activity

O=C(O)C(=O)O.OC1(c2ccc(Cl)cc2)CN2CCC1CC2 (centres unmarked) [Example 4, 3-(4-Chlorophenyl)-3-hydroxy quinuclidine Hydrogen Oxalate]
pharmacological activity: did not display pharmacological activity
